Test results taken from US20250360235A1, “RADI[…] AND METHOD FOR RADIOLABELLING” (Telix Innovations SA, priority 2024, published 2025).

Assay: Radiochemical purity by iTLC over time after radiolabelling
Type: physicochemical
Protocol: Table 1 to Table 5 show the results of various radiolabelling experiments on radiochemical purity and the chelation yield. The radiolabelling experiments in the tables are carried out as described in: • Example 1 for when the gallium-68 source is GE Liquid target generator and EZAG GalliaPharm generator; • Example 2 for when the gallium-68 source is IRE Galli Eo generator; • Example 3 for when the gallium-68 source is GE solid target generator;
However, the experiments were carried out with the amount of ascorbic acid as indicated in the Tables 1 to 5, and the activity as indicated in the Tables 1 to 5. Radiochemical purities were measured at various times (T0, T1, T4, T6) after the radiolabelled experiments have been conducted.
The kits of Example 1, Example 2 or Example 3, with amounts of ascorbic acid as set out in Table 7 were used in the experiments for the ascorbic acid bracketing matrix. Three strengths of [^68Ga]Ga-PSMA-11 will be tested, i.e. 50 mCi/ml, 7 mCi/ml and 1 mCi/ml. Radiochemical purity was determined at different time points (TO, T1, T4 or T6), as set out in Table 7.

[1] = 25 mg ascorbic acid, 46.0-46.1 mCi, 4.38-4.39 mCi/mL, EZAG GalliaPharm, average of 2, T4 (4 h)
[2] = 25 mg ascorbic acid, 46.0-46.1 mCi, 4.38-4.39 mCi/mL, EZAG GalliaPharm, n=2, T0
[3] = 25 mg ascorbic acid, 46.0-46.1 mCi, 4.38-4.39 mCi/mL, EZAG GalliaPharm, n=2, T4 (4 h)
[4] = bracketing ~1 mCi/mL, 18.75 mg ascorbic acid, 8.9-11.5 mCi, 0.85-1.09 mCi/mL, IRE Galli Eo, average of 2, T0
[5] = bracketing ~1 mCi/mL, 18.75 mg ascorbic acid, 8.9-11.5 mCi, 0.85-1.09 mCi/mL, IRE Galli Eo, average of 2, T1 (1 h)
[6] = bracketing ~1 mCi/mL, 25 mg ascorbic acid, 8.8-12.7 mCi, 0.84-1.21 mCi/mL, 2 × IRE Galli Eo, average of 2, T0
[7] = bracketing ~1 mCi/mL, 25 mg ascorbic acid, 8.8-12.7 mCi, 0.84-1.21 mCi/mL, 2 × IRE Galli Eo, average of 2, T1 (1 h)
[8] = bracketing ~1 mCi/mL, 31.25 mg ascorbic acid, 15.2-26.9 mCi, 1.44-2.54 mCi/mL, EZAG GalliaPharm, average of 2, T0
[9] = bracketing ~1 mCi/mL, 31.25 mg ascorbic acid, 15.2-26.9 mCi, 1.44-2.54 mCi/mL, EZAG GalliaPharm, average of 2, T1 (1 h)
[10] = bracketing ~7 mCi/mL, 18.75 mg ascorbic acid, 51.0-58.0 mCi, 5.55-6.5 mCi/mL, IRE Galli Eo, average of 2, T0
[11] = bracketing ~7 mCi/mL, 18.75 mg ascorbic acid, 51.0-58.0 mCi, 5.55-6.5 mCi/mL, IRE Galli Eo, average of 2, T4 (4 h)
[12] = bracketing ~7 mCi/mL, 25 mg ascorbic acid, 51.6-74.4 mCi, 4.56-6.92 mCi/mL, 3 × GE Liquid Target, 3 × IRE Galli Eo, 3 × EZAG GalliaPharm, average of 9, T0
[13] = bracketing ~7 mCi/mL, 25 mg ascorbic acid, 51.6-74.4 mCi, 4.56-6.92 mCi/mL, 3 × GE Liquid Target, 3 × IRE Galli Eo, 3 × EZAG GalliaPharm, average of 9, T4 (4 h)
[14] = bracketing ~7 mCi/mL, 31.25 mg ascorbic acid, 61.5-62.0 mCi, 5.85-5.88 mCi/mL, EZAG GalliaPharm, average of 2, T0
[15] = bracketing ~7 mCi/mL, 31.25 mg ascorbic acid, 61.5-62.0 mCi, 5.85-5.88 mCi/mL, EZAG GalliaPharm, average of 2, T4 (4 h)
[16] = bracketing ~50 mCi/mL, 20 mg ascorbic acid, 514-544 mCi, 48.3-51.9 mCi/mL, GE Solid Target, average of 2, T0
[17] = bracketing ~50 mCi/mL, 20 mg ascorbic acid, 514-544 mCi, 48.3-51.9 mCi/mL, GE Solid Target, average of 2, T6 (6 h)
[18] = bracketing ~50 mCi/mL, 25 mg ascorbic acid, 537-551 mCi, 50.2-51.6 mCi/mL, GE Solid Target, average of 3, T0
[19] = bracketing ~50 mCi/mL, 25 mg ascorbic acid, 537-551 mCi, 50.2-51.6 mCi/mL, GE Solid Target, average of 3, T6 (6 h)
[20] = bracketing ~50 mCi/mL, 31.25 mg ascorbic acid, 500-544 mCi, 48.1-51.7 mCi/mL, GE Solid Target, average of 2, T0

SMILES: O=C([O-])CN(CCN(CC(=O)[O-])Cc1cc(CCC(=O)NCCCCCC(=O)NCCCC[C@H](NC(=O)N[C@@H](CCC(=O)O)C(=O)O)C(=O)O)ccc1[O-])Cc1cc(CCC(=O)O)ccc1[O-].[68Ga+3].[OH3+] [[^68Ga]PSMA-11, gallium-68 radiolabelled Glu-urea-Lys-HBED-CC (gozetotide or PSMA-11)]
- Radiochemical Purity (iTLC) Free and Colloidal Ga-68 (%) [1]: 0%
- Radiochemical Purity (iTLC) Ga-68 PSMA-11 (%) [1]: 100%
- Radiochemical Purity (iTLC) Free and Colloidal Ga-68 (%) [2]: C (C = all results conform to specifications)
- Radiochemical Purity (iTLC) Ga-68 PSMA-11 (%) [2]: C (C = all results conform to specifications)
- Radiochemical Purity (iTLC) Free and Colloidal Ga-68 (%) [3]: C (C = all results conform to specifications)
- Radiochemical Purity (iTLC) Ga-68 PSMA-11 (%) [3]: C (C = all results conform to specifications)
- Radiochemical Purity (iTLC) Free and Colloidal Ga-68 (%) [4]: 0%
- Radiochemical Purity (iTLC) Ga-68 PSMA-11 (%) [4]: 100%
- Radiochemical Purity (iTLC) Free and Colloidal Ga-68 (%) [5]: 0%
- Radiochemical Purity (iTLC) Ga-68 PSMA-11 (%) [5]: 100%
- Radiochemical Purity (iTLC) Free and Colloidal Ga-68 (%) [6]: 0%
- Radiochemical Purity (iTLC) Ga-68 PSMA-11 (%) [6]: 100%
- Radiochemical Purity (iTLC) Free and Colloidal Ga-68 (%) [7]: 0%
- Radiochemical Purity (iTLC) Ga-68 PSMA-11 (%) [7]: 100%
- Radiochemical Purity (iTLC) Free and Colloidal Ga-68 (%) [8]: 0%
- Radiochemical Purity (iTLC) Ga-68 PSMA-11 (%) [8]: 100%
- Radiochemical Purity (iTLC) Free and Colloidal Ga-68 (%) [9]: 0%
- Radiochemical Purity (iTLC) Ga-68 PSMA-11 (%) [9]: 100%
- Radiochemical Purity (iTLC) Free and Colloidal Ga-68 (%) [10]: 0%
- Radiochemical Purity (iTLC) Ga-68 PSMA-11 (%) [10]: 100%
- Radiochemical Purity (iTLC) Free and Colloidal Ga-68 (%) [11]: 0%
- Radiochemical Purity (iTLC) Ga-68 PSMA-11 (%) [11]: 100%
- Radiochemical Purity (iTLC) Free and Colloidal Ga-68 (%) [12]: 0%
- Radiochemical Purity (iTLC) Ga-68 PSMA-11 (%) [12]: 100%
- Radiochemical Purity (iTLC) Free and Colloidal Ga-68 (%) [13]: 1%
- Radiochemical Purity (iTLC) Ga-68 PSMA-11 (%) [13]: 99%
- Radiochemical Purity (iTLC) Free and Colloidal Ga-68 (%) [14]: 0%
- Radiochemical Purity (iTLC) Ga-68 PSMA-11 (%) [14]: 100%
- Radiochemical Purity (iTLC) Free and Colloidal Ga-68 (%) [15]: 0%
- Radiochemical Purity (iTLC) Ga-68 PSMA-11 (%) [15]: 100%
- Radiochemical Purity (iTLC) Free and Colloidal Ga-68 (%) [16]: 3%
- Radiochemical Purity (iTLC) Ga-68 PSMA-11 (%) [16]: 97%
- Radiochemical Purity (iTLC) Free and Colloidal Ga-68 (%) [17]: 2%
- Radiochemical Purity (iTLC) Ga-68 PSMA-11 (%) [17]: 98%
- Radiochemical Purity (iTLC) Free and Colloidal Ga-68 (%) [18]: 0%
- Radiochemical Purity (iTLC) Ga-68 PSMA-11 (%) [18]: 100%
- Radiochemical Purity (iTLC) Free and Colloidal Ga-68 (%) [19]: 1%
- Radiochemical Purity (iTLC) Ga-68 PSMA-11 (%) [19]: 99%
- Radiochemical Purity (iTLC) Free and Colloidal Ga-68 (%) [20]: 1%
- Radiochemical Purity (iTLC) Ga-68 PSMA-11 (%) [20]: 99%
- Radiochemical Purity (iTLC) Free and Colloidal Ga-68 (%) (bracketing ~50 mCi/mL, 31.25 mg ascorbic acid, 500-544 mCi, 48.1-51.7 mCi/mL, GE Solid Target, average of 2, T6 (6 h)): 1%
